This is an account of results in patent US10519152B2, “Compounds and their use in treating cancer” (AstraZeneca AB, priority 2017, dated 2019).

Where a name gives a salt, the structure may show the parent alone.

The target in the experiment is T1, Estrogen Receptor (ERα) in MCF-7 human ductal carcinoma breast cell line (Homo sapiens, UniProt P03372).
T1 construct: endogenous in cells; host or cells: MCF-7
T1 sequence (P03372 1-595): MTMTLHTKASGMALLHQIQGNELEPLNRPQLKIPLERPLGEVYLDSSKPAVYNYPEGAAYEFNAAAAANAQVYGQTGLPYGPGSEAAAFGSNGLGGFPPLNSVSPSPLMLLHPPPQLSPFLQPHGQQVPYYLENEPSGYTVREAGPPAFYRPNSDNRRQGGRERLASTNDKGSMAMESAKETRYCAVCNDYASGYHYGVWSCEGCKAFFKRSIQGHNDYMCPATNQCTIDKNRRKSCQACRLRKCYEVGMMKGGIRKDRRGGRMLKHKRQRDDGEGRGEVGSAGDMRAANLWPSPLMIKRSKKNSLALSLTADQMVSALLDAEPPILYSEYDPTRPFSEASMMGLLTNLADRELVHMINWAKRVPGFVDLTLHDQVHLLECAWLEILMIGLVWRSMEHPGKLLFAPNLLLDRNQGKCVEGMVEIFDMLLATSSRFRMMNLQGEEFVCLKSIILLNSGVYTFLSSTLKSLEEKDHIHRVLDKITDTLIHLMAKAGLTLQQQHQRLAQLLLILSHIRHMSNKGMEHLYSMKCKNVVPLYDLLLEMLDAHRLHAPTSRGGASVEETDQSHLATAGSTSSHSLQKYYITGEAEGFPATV
Kind of experiment: MCF-7 ER degradation assay (cell based immuno-fluorescence). Conditions: MCF-7 cells; for ER degradation ≥ 90% at 0.3 μM: ER degradation by fulvestrant at 0.3 μM is defined as 100%; for DC50: 18-22 hours incubation, 50% reduction of ERα expression, single experiment or average of two or more, read-out: MCF-7 ER degradation IC50. The essentials:
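MCF-7 human ductal carcinoma breast cells were seeded at 3.75×10^4 cells per mL (40 μL per well) in 384 well plates with phenol red free DMEM containing 2 mM L-Glutamine and 5% (v/v) Charcoal/Dextran treated foetal calf serum. After overnight culture, compounds were acoustically dispensed, incubated 18-22 hours, then cells were formaldehyde-fixed and immunostained for ERα.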

As to `Cc1ncsc1-c1ccc(CNC(=O)[C@@H]2C[C@@H](OC(=O)[C@H](C)NC(=O)[C@@H](N)C(C)C)CN2C(=O)[C@@H](NC(=O)COCCOCCOCCOc2cc(F)c([C@@H]3c4[nH]c5ccccc5c4C[C@@H](C)N3CC(C)(C)F)c(F)c2)C(C)(C)C)cc1` [Example 100, (3R,5S)-1-((S)-2-(2-(2-(2-(2-(3,5-Difluoro-4-((1R,3R)-2-(2-fluoro-2-methylpropyl)-3-methyl-2,3,4,9-tetrahydro-1H-pyrido[3,4-b]indol-1-yl)phenoxy)ethoxy)ethoxy)ethoxy)acetamido)-3,3-dimethylbutanoyl)-5-((4-(4-methylthiazol-5-yl)benzyl)carbamoyl)pyrrolidin-3-yl L-valyl-L-alaninate Formate], the “ER degradation ≥ 90% at 0.3 μM” value was “••” and the DC50 came out at 400 pM.
Taken in the same sequence, the figures for `Cc1ncsc1-c1ccc(CNC(=O)[C@@H]2C[C@@H](O)CN2C(=O)[C@@H](NC(=O)COCCOCCOCC(=O)Nc2ccc([C@@H]3c4[nH]c5ccccc5c4C[C@@H](C)N3CC(C)(C)F)cc2)C(C)(C)C)cc1` [Example 57, (2S,4R)-1-((S)-2-(tert-butyl)-14-((4-((1R,3R)-2-(2-fluoro-2-methylpropyl)-3-methyl-2,3,4,9-tetrahydro-1H-pyrido[3,4-b]indol-1-yl)phenyl)amino)-4,14-dioxo-6,9,12-trioxa-3-azatetradecanoyl)-4-hydroxy-N-(4-(4-methylthiazol-5-yl)benzyl)pyrrolidine-2-carboxamide, Trifluoroacetic Acid] were “•” and 900 pM.
Taken in the same sequence, the figures for `Cc1ncsc1-c1ccc(CNC(=O)[C@@H]2C[C@@H](O)CN2C(=O)[C@@H](NC(=O)COCCOCCOCCOc2cc(F)c([C@@H]3c4[nH]c5ccccc5c4C[C@@H](C)N3CC(F)(F)F)c(F)c2)C(C)(C)C)cc1` [Example 95, (2S,4R)-1-((S)-2-(tert-Butyl)-14-(3,5-difluoro-4-((1R,3R)-3-methyl-2-(2,2,2-trifluoroethyl)-2,3,4,9-tetrahydro-1H-pyrido[3,4-b]indol-1-yl)phenoxy)-4-oxo-6,9,12-trioxa-3-azatetradecanoyl)-4-hydroxy-N-(4-(4-methylthiazol-5-yl)benzyl)pyrrolidine-2-carboxamide] were “••” and 400 pM.
As to `Cc1ncsc1-c1ccc(CNC(=O)[C@@H]2C[C@@H](O)CN2C(=O)[C@@H](NC(=O)COCCCOCCOc2cc(F)c([C@@H]3c4[nH]c5ccccc5c4C[C@@H](C)N3CC(F)(F)F)c(F)c2)C(C)(C)C)cc1` [Example 94, (2S,4R)-1-((S)-2-(2-(3-(2-(3,5-Difluoro-4-((1R,3R)-3-methyl-2-(2,2,2-trifluoroethyl)-2,3,4,9-tetrahydro-1H-pyrido[3,4-b]indol-1-yl)phenoxy)ethoxy)propoxy)acetamido)-3,3-dimethylbutanoyl)-4-hydroxy-N-(4-(4-methylthiazol-5-yl)benzyl)pyrrolidine-2-carboxamide], the “ER degradation ≥ 90% at 0.3 μM” value was “•” and the DC50 turned out to be 600 pM.
For `Cc1ncsc1-c1ccc(CNC(=O)[C@@H]2C[C@@H](O)CN2C(=O)[C@@H](NC(=O)COCCOCCCCCOc2cc(F)c([C@@H]3c4[nH]c5ccccc5c4C[C@@H](C)N3CC(C)(C)F)c(F)c2)C(C)(C)C)cc1` [Example 97, (2S,4R)-1-((S)-2-(2-(2-((5-(3,5-Difluoro-4-((1R,3R)-2-(2-fluoro-2-methylpropyl)-3-methyl-2,3,4,9-tetrahydro-1H-pyrido[3,4-b]indol-1-yl)phenoxy)pentyl)oxy)ethoxy)acetamido)-3,3-dimethylbutanoyl)-4-hydroxy-N-(4-(4-methylthiazol-5-yl)benzyl)pyrrolidine-2-carboxamide], the “ER degradation ≥ 90% at 0.3 μM” value is reported as “••” and the DC50 was found to be 800 pM.
As for `Cc1ncsc1-c1ccc([C@H](C)NC(=O)[C@@H]2C[C@@H](O)CN2C(=O)[C@@H](NC(=O)COCCOCCOCCOc2cc(F)c([C@@H]3c4[nH]c5ccccc5c4C[C@@H](C)N3CC(C)(C)F)c(F)c2)C(C)(C)C)cc1` [Example 3, (2S,4R)-1-((S)-2-(tert-Butyl)-14-(3,5-difluoro-4-((1R,3R)-2-(2-fluoro-2-methylpropyl)-3-methyl-2,3,4,9-tetrahydro-1H-pyrido[3,4-b]indol-1-yl)phenoxy)-4-oxo-6,9,12-trioxa-3-azatetradecanoyl)-4-hydroxy-N—((S)-1-(4-(4-methylthiazol-5-yl)phenyl)ethyl)pyrrolidine-2-carboxamide], the “ER degradation ≥ 90% at 0.3 μM” value was “••” and the DC50 stood at 300 pM.
For the molecule `Cc1ncsc1-c1ccc(CNC(=O)[C@@H]2C[C@@H](O)CN2C(=O)[C@@H](NC(=O)COCCO[C@@H](C)[C@H](C)OCCOc2cc(F)c([C@@H]3c4[nH]c5ccccc5c4C[C@@H](C)N3CC(C)(C)F)c(F)c2)C(C)(C)C)cc1` [Example 82, (2S,4R)-1-((2S,10S,11S)-2-(tert-butyl)-14-(3,5-difluoro-4-((1R,3R)-2-(2-fluoro-2-methylpropyl)-3-methyl-2,3,4,9-tetrahydro-1H-pyrido[3,4-b]indol-1-yl)phenoxy)-10,11-dimethyl-4-oxo-6,9,12-trioxa-3-azatetradecanoyl)-4-hydroxy-N-(4-(4-methylthiazol-5-yl)benzyl)pyrrolidine-2-carboxamide], the “ER degradation ≥ 90% at 0.3 μM” value is on record as “••” and the DC50 is 200 pM.
Taken in the same sequence, the figures for `Cc1ncsc1-c1ccc(CNC(=O)[C@@H]2C[C@@H](O)CN2C(=O)[C@@H](NC(=O)COCCO[C@H](C)[C@@H](C)OCCOc2cc(F)c([C@@H]3c4[nH]c5ccccc5c4C[C@@H](C)N3CC(C)(C)F)c(F)c2)C(C)(C)C)cc1` [Example 80, (2S,4R)-1-((2S,10R,11R)-2-(tert-butyl)-14-(3,5-difluoro-4-((1R,3R)-2-(2-fluoro-2-methylpropyl)-3-methyl-2,3,4,9-tetrahydro-1H-pyrido[3,4-b]indol-1-yl)phenoxy)-10,11-dimethyl-4-oxo-6,9,12-trioxa-3-azatetradecanoyl)-4-hydroxy-N-(4-(4-methylthiazol-5-yl)benzyl)pyrrolidine-2-carboxamide] were “••” and 700 pM.
Taken in the same sequence, the figures for `CC[C@H](C)[C@H](N)C(=O)O[C@@H]1C[C@@H](C(=O)NCc2ccc(-c3scnc3C)cc2)N(C(=O)[C@@H](NC(=O)COCCOCCOCCOc2cc(F)c([C@@H]3c4[nH]c5ccccc5c4C[C@@H](C)N3CC(C)(C)F)c(F)c2)C(C)(C)C)C1` [Example 99, (3R,5S)-1-((S)-2-(2-(2-(2-(2-(3,5-Difluoro-4-((1R,3R)-2-(2-fluoro-2-methylpropyl)-3-methyl-2,3,4,9-tetrahydro-1H-pyrido[3,4-b]indol-1-yl)phenoxy)ethoxy)ethoxy)ethoxy)acetamido)-3,3-dimethylbutanoyl)-5-((4-(4-methylthiazol-5-yl)benzyl)carbamoyl)pyrrolidin-3-yl L-isoleucinate Formate] were “•” and 1600 pM.
Taken in the same sequence, the figures for `Cc1ncsc1-c1ccc(CNC(=O)[C@@H]2C[C@@H](O)CN2C(=O)[C@@H](NC(=O)COCc2ccc(OCCOc3cc(F)c([C@@H]4c5[nH]c6ccccc6c5C[C@@H](C)N4CC(C)(C)F)c(F)c3)cc2)C(C)(C)C)cc1` [Example 4, (2S,4R)-1-((S)-2-(2-((4-(2-(3,5-Difluoro-4-((1R,3R)-2-(2-fluoro-2-methylpropyl)-3-methyl-2,3,4,9-tetrahydro-1H-pyrido[3,4-b]indol-1-yl)phenoxy)ethoxy)benzyl)oxy)acetamido)-3,3-dimethylbutanoyl)-4-hydroxy-N-(4-(4-methylthiazol-5-yl)benzyl)pyrrolidine-2-carboxamide] were “•” and 2100 pM.
Turning to `Cc1ncsc1-c1ccc(CNC(=O)[C@@H]2C[C@@H](O)CN2C(=O)[C@@H](NC(=O)COCCOCCNC(=O)/C=C/c2cc(F)c([C@@H]3c4[nH]c5ccccc5c4C[C@@H](C)N3CC(C)(C)F)c(F)c2)C(C)(C)C)cc1` [Example 58, (2S,4R)-1-((S,E)-2-(tert-butyl)-15-(3,5-difluoro-4-((1R,3R)-2-(2-fluoro-2-methylpropyl)-3-methyl-2,3,4,9-tetrahydro-1H-pyrido[3,4-b]indol-1-yl)phenyl)-4,13-dioxo-6,9-dioxa-3,124-diazapentadec-4-enoyl)-4-hydroxy-N-(4-(4-methylthiazol-5-yl)benzyl)pyrrolidine-2-carboxamide, Trifluoroacetic Acid], the “ER degradation ≥ 90% at 0.3 μM” value is reported as “•” and the DC50 was 400 pM.
